Test results published in patent US20220162182A1, “KINASE INHIBITOR COMPOUNDS AND COMPOSITIONS AND METHODS OF USE” (ICAHN SCHOOL OF MEDICINE AT MOUNT SINAI, priority 2018, published 2022).
Where “and” joins values, the source holds several entries; their conditions need not be identical. Equal entries are not always repeated.

Experiments:
DYRK1A = molecular target: T1, DYRK1A (Homo sapiens, UniProt Q13627); assay: KINOMEscan DYRK1A binding assay (DiscoverX), Kd determination; details: eleven serial three fold dilutions, highest concentration 60 μM, several values in a cell = repeat determinations
T1 construct: purchased DiscoverX
Description: Compounds were tested for DYRK1A binding activity at DiscoverX. DiscoverX uses proprietary KINOMEscan® Assay (Fabian et al., “A Small Molecule-kinase Interaction Map for Clinical Kinase Inhibitors,” Nat. Biotechnol. 23(3):329-336 (2005), which is hereby incorporated by reference in its entirety). Compounds were screened for DYRK1A activity at a single concentration of 3 μM in duplicates. Similarly, the dissociation constant Kd of the hit compounds from the initial screening was determined at DiscoverX using their proprietary KINOMEscan® Assay. Kd values are determined using eleven serial three fold dilutions with the highest concentration of 60 μM.

DYRK1/DYRK1A = molecular target: T2, DYRK1/DYRK1A (Homo sapiens, UniProt Q13627); assay: DYRK1/DYRK1A IC50 assay (Reaction Biology Corp.); format: biochemical; details: DYRK1/DYRK1A assay from Reaction Biology Corp.
T2 construct: purchased Reaction Biology Corp

Structure (SMILES) | Kd (DYRK1A) | IC50 (DYRK1/DYRK1A)
C[C@H](Nc1cncc(-c2ccc3[nH]c(=O)[nH]c3c2)c1)c1ccccc1 [Compound 68b, (S)-5-(5-((1-Phenylethyl)amino)pyridin-3-yl)-1H-benzo[d]imidazol-2(3H)-one] | 7.5 nM | 2.18 nM
C[C@@H](Nc1cncc(-c2ccc3[nH]c(=O)[nH]c3c2)c1)c1ccccc1 [Compound 68a, (R)-5-(5-((1-Phenylethyl)amino)pyridin-3-yl)-1H-benzo[d]imidazol-2(3H)-one] | 0.59 nM | 0.21 nM
CC(Nc1cncc(-c2ccc3[nH]c(=O)n(C)c3c2)c1)c1ccccc1 (stereo not drawn) [Compound 30n, 1-Methyl-6-(5-((1-phenylethyl)amino)pyridin-3-yl)-1H-benzo[d]imidazol-2(3H)-one] | 0.81 nM | –
O=c1[nH]c2ccc(-c3cncc(NCc4ccccc4Cl)c3)cc2[nH]1 [Compound 30c, 5-(5-((2-Chlorobenzyl)amino)pyridin-3-yl)-1H-benzo[d]imidazol-2(3H)-one] | 1.3 nM | –
Cn1c(=O)[nH]c2ccc(-c3cncc(NCc4ccccc4Cl)c3)cc21 [Compound 30r, 6-(5-((2-Chlorobenzyl)amino)pyridin-3-yl)-1-methyl-1H-benzo[d]imidazol-2(3H)-one] | 1.3 nM | 0.1 nM
Cc1ncc(-c2ccc3[nH]c(=O)[nH]c3c2)cc1NCc1ccccc1 [Compound 13c, 5-(5-(Benzylamino)-6-methylpyridin-3-yl)-1H-benzo[d]imidazol-2(3H)-one] | 140 nM | –
N#Cc1ccc(CNc2cncc(-c3ccc4[nH]c(=O)[nH]c4c3)c2)cc1 [Compound 30g, 4-(((5-(2-Oxo-2,3-dihydro-1H-benzo[d]imidazol-5-yl)pyridin-3-yl)amino)methyl)benzonitrile] | 31 nM | –
CC(Nc1cncc(-c2ccc3[nH]c(=O)[nH]c3c2)c1)c1ccccc1 (stereo not drawn) [Compound 30j, 5-(5-((1-Phenylethyl)amino)pyridin-3-yl)-1H-benzo[d]imidazol-2(3H)-one] | 0.71 nM and 1.1 nM | –
O=c1[nH]c2ccc(-c3cncc(NCc4cccc(F)c4)c3)cc2[nH]1 [Compound 30b, 5-(5-((3-Fluorobenzyl)amino)pyridin-3-yl)-1H-benzo[d]imidazol-2(3H)-one] | 1.2 nM | –
Cn1c(=O)[nH]c2cc(-c3cncc(NCc4ccccc4)c3)ccc21 [Compound 12c, 5-(5-(Benzylamino)pyridin-3-yl)-1-methyl-1H-benzo[d]imidazol-2(3H)-one] | 2000 nM | –
Cn1c(=O)[nH]c2ccc(-c3cncc(NCc4ccccc4F)c3)cc21 [Compound 30q, 6-(5-((2-Fluorobenzyl)amino)pyridin-3-yl)-1-methyl-1H-benzo[d]imidazol-2(3H)-one] | 0.86 nM | 0.3 nM
O=c1[nH]c2ccc(-c3cncc(NCc4ccccc4)c3)cc2[nH]1 [Compound 13a, 5-(5-(Benzylamino)pyridin-3-yl)-1H-benzo[d]imidazol-2(3H)-one] | 2.3 nM and 2.9 nM and 1.1 nM | –
O=C1Cc2cc(-c3cncc(NCc4ccccc4)c3)ccc2N1 [Compound 13e, 5-(5-(Benzylamino)pyridin-3-yl)indolin-2-one] | 1.3 nM and 1.9 nM | –
O=c1[nH]c2ccc(-c3cncc(NCCc4ccccc4)c3)cc2[nH]1 [Compound 30k, 5-(5-(Phenethylamino)pyridin-3-yl)-1H-benzo[d]imidazol-2(3H)-one] | 4.3 nM | –
O=c1[nH]c2ccc(-c3ccc(NCc4ccccc4)nc3)cc2[nH]1 [Compound 11a, 5-(6-(Benzylamino)pyridin-3-yl)-1H-benzo[d]imidazol-2(3H)-one] | 300 nM | –
O=c1[nH]c2ccc(-c3cncc(NCc4ccc(Cl)cc4)c3)cc2[nH]1 [Compound 30e, 5-(5-((4-Chlorobenzyl)amino)pyridin-3-yl)-1H-benzo[d]imidazol-2(3H)-one] | 23 nM | –
Cc1ncc(-c2ccc3[nH]c(=O)[nH]c3c2)cc1NCc1ccc(F)cc1 [Compound 13d, 5-(5-((4-Fluorobenzyl)amino)-6-methylpyridin-3-yl)-1H-benzo[d]imidazol-2(3H)-one] | 240 nM | –
O=c1[nH]c2ccc(-c3ccc(NCc4ccc(F)cc4)nc3)cc2[nH]1 [Compound 11b, 5-(6-((4-Fluorobenzyl)amino)pyridin-3-yl)-1H-benzo[d]imidazol-2(3H)-one] | 580 nM and 510 nM | –
O=c1[nH]c2ccc(-c3cncc(NCCCc4ccccc4)c3)cc2[nH]1 [Compound 30p, 5-(5-((3-Phenylpropyl)amino)pyridin-3-yl)-1H-benzo[d]imidazol-2(3H)-one] | 15 nM | 1.83 nM

Further lines, results first:

Kd (DYRK1A) | IC50 (DYRK1/DYRK1A) | Structure (SMILES)
15 nM | 23.2 nM | N[C@@H](Cc1ccccc1)c1cncc(-c2ccc3[nH]c(=O)[nH]c3c2)c1 [Compound 65b, (S)-5-(5-(1-Amino-2-phenylethyl)pyridin-3-yl)-1H-benzo[d]imidazol-2(3H)-one]
28 nM | – | O=c1[nH]c2ccc(-c3cncc(NCc4cccc5ccccc45)c3)cc2[nH]1 [Compound 31d, 5-(5-((Naphthalen-1-ylmethyl)amino)pyridin-3-yl)-1H-benzo[d]imidazol-2(3H)-one]
3.2 nM | 3.98 nM | N[C@H](Cc1ccccc1)c1cncc(-c2ccc3[nH]c(=O)[nH]c3c2)c1 [Compound 65a, (R)-5-(5-(1-Amino-2-phenylethyl)pyridin-3-yl)-1H-benzo[d]imidazol-2(3H)-one]
9.9 nM | – | NC(=O)c1cccc(CNc2cncc(-c3ccc4[nH]c(=O)[nH]c4c3)c2)c1 [Compound 33a, 3-(((5-(2-Oxo-2,3-dihydro-1H-benzo[d]imidazol-5-yl)pyridin-3-yl)amino)methyl)benzamide]
1.2 nM | – | O=c1[nH]c2ccc(-c3cncc(NCc4ccccn4)c3)cc2[nH]1 [Compound 31a, 5-(5-((Pyridin-2-ylmethyl)amino)pyridin-3-yl)-1H-benzo[d]imidazol-2(3H)-one]
3.9 nM | – | O=c1[nH]c2ccc(-c3cncc(NCc4ccncc4)c3)cc2[nH]1 [Compound 31c, 5-(5-((Pyridin-4-ylmethyl)amino)pyridin-3-yl)-1H-benzo[d]imidazol-2(3H)-one]
14 nM | – | NC(=O)c1ccc(CNc2cncc(-c3ccc4[nH]c(=O)[nH]c4c3)c2)cc1 [Compound 33b, 4-(((5-(2-Oxo-2,3-dihydro-1H-benzo[d]imidazol-5-yl)pyridin-3-yl)amino)methyl)benzamide]
